Data on 17 compounds can be found in patent US5011854A, “Hydroxamic acid derivatives and use thereof in combatting lipoxygenase-mediated diseases” (Kyowa Hakko Kogyo Co. Ltd., priority 1987, dated 1991).

The target in assay [1] is T1, 5-lipoxygenase (Rattus norvegicus, UniProt P12527).
T1 construct: rat basophilic leukemia cells (RBL-1, ATCC No. CRL 1378) were used as the 5-lipoxygenase source; endogenous in cells; host or cells: RBL-1 (rat basophilic leukemia, ATCC CRL 1378)
T1 sequence (P12527 1-673): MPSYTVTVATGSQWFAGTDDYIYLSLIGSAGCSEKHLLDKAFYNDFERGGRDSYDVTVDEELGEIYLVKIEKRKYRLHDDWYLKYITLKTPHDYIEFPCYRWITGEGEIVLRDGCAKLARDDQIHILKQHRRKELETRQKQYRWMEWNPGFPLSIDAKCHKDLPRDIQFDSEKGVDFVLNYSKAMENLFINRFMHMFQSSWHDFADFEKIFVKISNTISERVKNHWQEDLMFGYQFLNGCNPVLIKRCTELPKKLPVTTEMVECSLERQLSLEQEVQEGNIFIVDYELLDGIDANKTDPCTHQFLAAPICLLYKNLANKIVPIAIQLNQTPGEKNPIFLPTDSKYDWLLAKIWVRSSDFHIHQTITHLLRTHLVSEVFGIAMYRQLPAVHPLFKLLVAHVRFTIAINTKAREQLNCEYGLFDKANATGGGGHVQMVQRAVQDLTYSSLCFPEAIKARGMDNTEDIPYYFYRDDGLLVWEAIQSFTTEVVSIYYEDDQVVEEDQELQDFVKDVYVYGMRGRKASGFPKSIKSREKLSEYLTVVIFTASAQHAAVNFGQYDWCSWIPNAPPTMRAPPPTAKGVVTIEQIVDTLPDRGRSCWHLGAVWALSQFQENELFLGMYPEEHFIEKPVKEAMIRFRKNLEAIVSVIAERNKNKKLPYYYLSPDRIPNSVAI
The experiment in a line: 5-Lipoxygenase inhibiting activity (Test Example 2, [14C]-arachidonic acid, TLC). It counts as biochemical. Conditions: RBL-1 cells as enzyme source; 27 μM [14C]-arachidonic acid; pH 7.4; 37° C., 5 min; TLC/scintillation; read-out: Inhibitory Activity IC50, 5-Lipoxygenase. The procedure: The compounds listed in Table 3 were tested for their lipoxygenase inhibiting activity by the following methods:
(a') 5-Lipoxygenase inhibiting activity
Essentially, the same method described in the above (a) was used. Thus, rat basophilic leukemia cells (RBL-1, ATCC No. CRL 1378) were used as the 5-lipoxygenase source. These cells were contacted with the test compound in 30 μl of 0.17 M Tris-hydrochloride buffer (pH 7.4) containing […] calcium chloride, 3.3 mM adenosine triphosphate and 1 mM glutathione at 37° C. for 5 minutes. Then, 25 μl of 27 μM [^14 C]-arachidonic acid was added and the enzymatic reaction was allowed to proceed at 37° C. for 5 minutes. To the reaction mixture was added 50 μl of ethyl acetate/methanol/0.2 M citric acid (30/4/1), and the whole mixture was stirred. The reaction product extracted into the ethyl acetate layer was separated by silica gel thin layer chromatography [Merck Art 5631: developing solvent; petroleum ether/ethyl ether/acetic acid (50/50/1)]. The site of the product [^14 C]-5-hydroxy-6,8,11,14-eicosatetraenoic acid was detected by autoradiography, the gel portion corresponding to the site was scraped off and assayed for ^14 C using a liquid scintillation counter, and the yield of the product was determined.

The conditions of assay [2]: literature; cited from earlier work.
Assay [3] addresses T2, 12-lipoxygenase (Bos taurus, UniProt F1MFA8).
T2 construct: a bovine platelet-derived preparation was used as the 12-lipoxygenase source; from tissue; host or cells: bovine platelets
T2 sequence (F1MFA8 1-663): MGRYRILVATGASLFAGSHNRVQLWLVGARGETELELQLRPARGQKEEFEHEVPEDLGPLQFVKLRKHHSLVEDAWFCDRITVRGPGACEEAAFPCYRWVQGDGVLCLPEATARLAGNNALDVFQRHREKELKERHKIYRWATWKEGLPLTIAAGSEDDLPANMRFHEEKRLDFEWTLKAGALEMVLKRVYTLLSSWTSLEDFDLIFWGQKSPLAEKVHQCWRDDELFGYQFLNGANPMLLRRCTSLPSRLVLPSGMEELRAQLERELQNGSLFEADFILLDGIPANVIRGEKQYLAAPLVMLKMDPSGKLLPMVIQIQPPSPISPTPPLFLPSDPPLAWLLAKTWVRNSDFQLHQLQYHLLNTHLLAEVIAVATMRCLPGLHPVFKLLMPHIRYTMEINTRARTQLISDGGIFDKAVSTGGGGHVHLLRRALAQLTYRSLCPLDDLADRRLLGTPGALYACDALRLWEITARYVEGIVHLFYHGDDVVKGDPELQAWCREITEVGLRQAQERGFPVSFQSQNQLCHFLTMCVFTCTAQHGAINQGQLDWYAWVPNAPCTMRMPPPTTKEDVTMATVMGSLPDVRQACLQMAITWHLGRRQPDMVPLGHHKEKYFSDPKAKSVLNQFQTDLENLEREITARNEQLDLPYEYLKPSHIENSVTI
Briefly: Platelet 12-lipoxygenase inhibiting activity (Test Example 2, [14C]-arachidonic acid, TLC). It counts as biochemical. The settings on record: bovine platelet-derived preparation; 20 μM [14C]-arachidonic acid; pH 7.4; 30° C., 10 min; TLC/scintillation; read-out: Inhibitory Activity IC50, 12-Lipoxygenase.

The test system of the next assay is lipoxygenase. The settings on record: known compounds; cited from earlier work.
Assay [4] concerns the target T2, 12-lipoxygenase. Briefly: Platelet 12-lipoxygenase inhibiting activity (Test Example 1, HPLC determination of 12-HETE). It counts as biochemical. The settings on record: bovine platelet-derived preparation; 60 μM arachidonic acid; pH 7.4; 30° C., 10 min; HPLC of 12-HETE; read-out: Inhibitory Activity IC50, 12-Lipoxygenase. The protocol:
(§1) The compounds listed in Table 2 were tested in vitro for their lipoxygenase inhibiting activity in the following manner: a) Leukocyte 5-lipoxygenase inhibiting activity
The method of D.H. Nugtern et al. Biochem. Biophys. Acta, 380, 299 (1975) was modified. Thus, a bovine platelet-derived preparation was used as the 12-lipoxygenase source. This enzyme preparation and the test compound were brought into contact with each other in 60 μl of 0.17 M Tris-hydrochloride buffer (pH 7.4) at 30° C. for 5 minutes, 50 μl of 60 μM arachidonic acid was then added and the enzymatic reaction was allowed to proceed at 30° C. for 10 minutes. Thereafter, 200 μl of methanol and 13-hydroxylinolic acid (internal standard) were added and, after sufficient shaking, the mixture was allowed to stand at -20° C. for 30 minutes. The supernatant was collected by centrifugation (12,000 revolutions per minute, 10 minutes). This supernatant was evaporated to dryness under a nitrogen gas stream. To the residue was added 200 μl of 75% aqueous methanol and 100 μl of the resultant solution was subjected to high performance liquid chromatography for the determination of 12-HETE (12-hydroxyeicosapetraenoic acid). 12-HETE was assayed by ultraviolet absorption monitoring at 234 nm. The yield of 12-HETE was calculated from the peak area corrected in comparison with the peak of the internal standard.

Assay [5] deals with T1, 5-lipoxygenase. The experiment in a line: Leukocyte 5-lipoxygenase inhibiting activity (Test Example 1, HPLC determination of 5-HETE). It counts as biochemical. Conditions: RBL-1 cells as enzyme source; 60 μM arachidonic acid; pH 7.4; 37° C., 5 min; HPLC of 5-HETE; read-out: Inhibitory Activity IC50, 5-Lipoxygenase. The protocol:
as §1
The method of B.A. Jakschik et al. Biochem. Biophys. Res. Commun., 95, 103 (1980) was modified. Thus, rat basophilic leukemia cells (RBL-1, ATCC No. CRL 1378) were used as the 5-lipoxygenase source. These cells were brought into contact with the test compound in 60 μl of 0.17 M Tris-hydrochloride buffer (pH 7.4) containing […], 3.3 mM adenosine triphosphate and 1 mM glutathione at 37° C. for 5 minutes, then 50 μl of 60 μM arachidonic acid was added and the enzymatic reaction was allowed to proceed at 37° C. for 5 minutes. Thereafter, 200 μl of methanol and 13-hydroxylinolic acid (internal standard) were added. After sufficient shaking, the mixture was allowed to stand at -20° C. for 30 minutes and then centrifuged for 10 minutes (12,000 revolutions per minute) to collect the supernatant. The supernatant was evaporated to dryness under a nitrogen gas stream. To the residue was added 200 μl of 75% aqueous methanol and 100 μl of the resultant solution was subjected to high performance liquid chromatography for the determination of 5-HETE (5-hydroxyeicosatetraenoic acid). 5-HETE was assayed on the basis of the absorption at 234 nm as measured by ultraviolet absorption monitoring. The yield of 5-HETE was calculated from the peak area corrected in comparison with the peak of the internal standard. […] (b) Platelet 12-lipoxygenase inhibiting activity

For `CC1=C(C)C(=O)C(CCCCC#CCCCC#CCO)=C(C)C1=O` [AA-861, 2-(12-hydroxy-dodeca-5,10-diynyl)-3,5,6-trimethyl-1,4-benzoquinone, reference compound], the IC50 (as a rule, the point on the concentration scale where inhibition reaches its midpoint) at 5-lipoxygenase [1] was determined as 680 nM; at 12-lipoxygenase [3], 450000 nM. The “pharmacological activities (in words)” value in assay [2] was “bronchial contraction suppressing, anti-inflammatory, anti-myocardiac infarction and other activities”. For the same compound, the “lipoxygenase inhibiting activity (in words)” value in the assay on lipoxygenase was “known to have lipoxygenase inhibiting activity”.

`Cl.NC1=NN(c2cccc(C(F)(F)F)c2)CC1` [BW-755C, 3-amino-1-(3-trifluoromethylphenyl)-2-pyrazoline hydrochloride]: the “pharmacological activities (in words)” value in assay [2] is “anti-inflammatory and other activities”. Further, the IC50 on 12-lipoxygenase [3] was 8800 nM. For the same compound, the “lipoxygenase inhibiting activity (in words)” value in the assay with lipoxygenase was “known to have lipoxygenase inhibiting activity”.

For the compound `CCCCCCCCCCCC(=O)NCCCCCN(O)C(=O)CCC(=O)OC` [Compound No. 2], the IC50 at 12-lipoxygenase [4] worked out at 3300 nM; on 5-lipoxygenase [5], 10 nM.

Regarding `CCCCCCCCCCCC(=O)N(O)CCCCCNCCCC(=O)O` [Compound No. 6], the IC50 on 5-lipoxygenase [5] worked out at 560 nM.

Consider `CCCCCCCCCCCC(=O)N(O)CCCCCNCCCC(=O)OC` [Compound No. 7], for which, at 5-lipoxygenase [5], the IC50 is 52 nM.

For the compound `CCCCCCCCCCCC(=O)N(O)CCCCCNC(=O)CC(=O)OCC` [Compound No. 8], the IC50 at 12-lipoxygenase [4] is 12 nM; at 5-lipoxygenase [5], 25 nM.

On to `CCCCCCCCCCCC(=O)N(O)CCCCCNC(=O)CC(=O)OC` [Compound No. 9], for which the IC50 is 11 nM on 12-lipoxygenase [4] and 54 nM at 5-lipoxygenase [5].

Turning to `CCCCCCCCCCCC(=O)N(O)CCCNC(=O)CCC(=O)O` [Compound No. 10], the IC50 on 12-lipoxygenase [4] was 7000 nM; on 5-lipoxygenase [5] it was 270 nM.

Regarding `CCCCCCCCCCCC(=O)N(O)CCCNC(=O)CCC(=O)OC` [Compound No. 11], the IC50 at 5-lipoxygenase [5] came to 12 nM.

Regarding `CCCCCCCCCCCC(=O)N(O)CCCCCNC(=O)CCC(=O)O` [Compound No. 12], the IC50 at 5-lipoxygenase [1] is 1870 nM; at 12-lipoxygenase [3], 35 nM.

As for `CCCCCCCCCCCC(=O)N(O)CCCCCNC(=O)CCC(=O)OC` [Compound No. 13], the values for the IC50 at 5-lipoxygenase [1] and on 12-lipoxygenase [3] were 55 nM and 14 nM, respectively.

Consider `CCCCCCCCCCCCCCCCCC(=O)N(O)CCCCCNC(=O)CCC(=O)OC` [compound 15], for which the IC50 on 5-lipoxygenase [1] is 800 nM; at 12-lipoxygenase [3], 32000 nM.

For `CCCCCCCCCCCCCCCC(=O)N(O)CCCCCNC(=O)CCC(=O)OC` [compound 17], the IC50 at 5-lipoxygenase [1] is 470 nM; on 12-lipoxygenase [3], 1000 nM.

Regarding `CCC(C)CCCCCCCCCCC(=O)N(O)CCCCCNC(=O)CCC(=O)OC` (stereo not shown) [compound 21], the IC50 at 5-lipoxygenase [1] turned out to be 360 nM; at 12-lipoxygenase [3], 310 nM.

On to `COC(=O)CCC(=O)NCCCCCN(O)C(=O)CCCCCCCCCCC(C)C` [compound 23], for which the figures for the IC50 at 5-lipoxygenase [1] and at 12-lipoxygenase [3] were 300 nM and 56 nM, respectively.

With `CCCCCCCCCCCCC(=O)N(O)CCCCCNC(=O)CCC(=O)OC` [compound 24], the IC50 at 5-lipoxygenase [1] amounted to 190 nM; on 12-lipoxygenase [3] it was 36 nM.

In the case of `COC(=O)CCC(=O)NCCCCCN(O)C(=O)CCCCCCCCC(C)C` [compound 27], the IC50 at 5-lipoxygenase [1] came to 89 nM; at 12-lipoxygenase [3], 33 nM.
